Source: the kinase profiling compilation of Christmann-Franck et al. (2016)

Legend:
[1] = molecular target: PRKACA (human) (UniProt P17612)
[2] = molecular target: IKBKB (human) (UniProt O14920)
[3] = test system: RPS6KB1 (human), P23443 [T412E]
[4] = molecular target: MAPK11 (human) (UniProt Q15759)
[5] = molecular target: MST4 (human) (UniProt Q9P289)
[6] = molecular target: PIM3 (human) (UniProt Q86V86)
[7] = molecular target: TBK1 (human) (UniProt Q9UHD2)
[8] = molecular target: MAPK12 (human) (UniProt P53778)
Sequence of MAPK12 (human) (P53778 whole entry, looked up): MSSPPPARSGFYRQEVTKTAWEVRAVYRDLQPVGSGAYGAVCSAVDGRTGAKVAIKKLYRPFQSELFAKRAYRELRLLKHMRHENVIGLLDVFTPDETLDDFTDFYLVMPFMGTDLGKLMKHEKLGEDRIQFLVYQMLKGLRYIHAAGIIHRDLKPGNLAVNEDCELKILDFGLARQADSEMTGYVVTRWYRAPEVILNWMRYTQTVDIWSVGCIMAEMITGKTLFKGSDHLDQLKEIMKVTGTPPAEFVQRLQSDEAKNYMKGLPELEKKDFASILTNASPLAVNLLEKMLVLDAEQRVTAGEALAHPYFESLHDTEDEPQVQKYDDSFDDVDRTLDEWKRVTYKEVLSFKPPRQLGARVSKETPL

[9] = molecular target: MAPK8 (human) (UniProt P45983)
[10] = molecular target: CSNK2A1 (human) (UniProt P68400)
[11] = molecular target: CHEK1 (human) (UniProt O14757)
[12] = molecular target: PRKCA (human) (UniProt P17252)
[13] = molecular target: GSK3B (human) (UniProt P49841)
[14] = molecular target: SRPK1 (human) (UniProt Q96SB4)
Sequence of SRPK1 (human) (Q96SB4 whole entry, looked up): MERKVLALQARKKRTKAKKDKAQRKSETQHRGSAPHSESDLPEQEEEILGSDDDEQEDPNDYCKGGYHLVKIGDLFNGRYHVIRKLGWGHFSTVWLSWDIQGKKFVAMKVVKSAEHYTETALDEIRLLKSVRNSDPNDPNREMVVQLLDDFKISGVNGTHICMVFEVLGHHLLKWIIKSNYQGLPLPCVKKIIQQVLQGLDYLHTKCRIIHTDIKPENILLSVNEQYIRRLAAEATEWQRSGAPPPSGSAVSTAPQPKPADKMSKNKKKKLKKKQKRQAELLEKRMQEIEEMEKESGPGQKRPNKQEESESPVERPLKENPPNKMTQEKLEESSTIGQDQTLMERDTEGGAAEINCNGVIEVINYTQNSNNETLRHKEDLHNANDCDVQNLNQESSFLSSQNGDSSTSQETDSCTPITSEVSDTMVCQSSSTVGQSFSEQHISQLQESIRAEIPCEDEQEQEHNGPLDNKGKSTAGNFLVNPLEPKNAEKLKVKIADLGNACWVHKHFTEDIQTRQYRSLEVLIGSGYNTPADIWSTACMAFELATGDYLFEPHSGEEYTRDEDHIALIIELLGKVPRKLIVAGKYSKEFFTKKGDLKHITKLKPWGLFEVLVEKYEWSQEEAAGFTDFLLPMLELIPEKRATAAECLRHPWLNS

[15] = molecular target: MAPKAPK2 (human) (UniProt P49137)
Sequence of MAPKAPK2 (human) (P49137 whole entry, looked up): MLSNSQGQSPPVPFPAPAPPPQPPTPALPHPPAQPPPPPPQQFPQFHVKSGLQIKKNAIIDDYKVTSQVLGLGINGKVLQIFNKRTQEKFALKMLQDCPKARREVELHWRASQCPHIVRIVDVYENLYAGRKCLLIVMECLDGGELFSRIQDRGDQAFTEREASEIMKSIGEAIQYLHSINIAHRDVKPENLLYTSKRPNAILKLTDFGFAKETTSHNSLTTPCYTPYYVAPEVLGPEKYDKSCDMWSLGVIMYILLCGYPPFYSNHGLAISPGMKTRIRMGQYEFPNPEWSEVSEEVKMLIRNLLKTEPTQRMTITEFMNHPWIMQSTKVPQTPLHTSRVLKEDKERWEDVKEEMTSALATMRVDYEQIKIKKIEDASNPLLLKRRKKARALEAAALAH

[16] = molecular target: MAPKAPK5 (human) (UniProt Q8IW41)
[17] = molecular target: MAP2K1 (human) (UniProt Q02750)
[18] = molecular target: SYK (human) (UniProt P43405)
[19] = molecular target: IGF1R (human) (UniProt P08069)
[20] = molecular target: FLT1 (human) (UniProt P17948)
[21] = molecular target: MAPK13 (human) (UniProt O15264)
[22] = molecular target: EPHA2 (human) (UniProt P29317)
[23] = molecular target: MAPK14 (human) (UniProt Q16539)
Sequence of MAPK14 (human) (Q16539 whole entry, looked up): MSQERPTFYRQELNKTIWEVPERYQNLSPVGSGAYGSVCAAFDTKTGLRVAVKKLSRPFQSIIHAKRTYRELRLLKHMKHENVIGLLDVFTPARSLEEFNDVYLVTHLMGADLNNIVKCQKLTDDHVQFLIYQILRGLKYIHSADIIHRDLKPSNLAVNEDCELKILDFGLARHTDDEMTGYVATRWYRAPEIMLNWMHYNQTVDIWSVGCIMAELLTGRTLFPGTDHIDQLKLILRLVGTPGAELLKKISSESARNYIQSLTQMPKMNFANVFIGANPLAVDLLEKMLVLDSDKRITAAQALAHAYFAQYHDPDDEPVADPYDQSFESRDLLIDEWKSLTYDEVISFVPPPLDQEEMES

[24] = molecular target: YES1 (human) (UniProt P07947)
[25] = molecular target: CAMKK2 (human) (UniProt Q96RR4)
[26] = molecular target: CDK2 CCNA2 (human) (UniProt P20248+P24941)
[27] = molecular target: PIM2 (human) (UniProt Q9P1W9)
[28] = molecular target: MAPK15 (human) (UniProt Q8TD08)
Sequence of MAPK15 (human) (Q8TD08 whole entry, looked up): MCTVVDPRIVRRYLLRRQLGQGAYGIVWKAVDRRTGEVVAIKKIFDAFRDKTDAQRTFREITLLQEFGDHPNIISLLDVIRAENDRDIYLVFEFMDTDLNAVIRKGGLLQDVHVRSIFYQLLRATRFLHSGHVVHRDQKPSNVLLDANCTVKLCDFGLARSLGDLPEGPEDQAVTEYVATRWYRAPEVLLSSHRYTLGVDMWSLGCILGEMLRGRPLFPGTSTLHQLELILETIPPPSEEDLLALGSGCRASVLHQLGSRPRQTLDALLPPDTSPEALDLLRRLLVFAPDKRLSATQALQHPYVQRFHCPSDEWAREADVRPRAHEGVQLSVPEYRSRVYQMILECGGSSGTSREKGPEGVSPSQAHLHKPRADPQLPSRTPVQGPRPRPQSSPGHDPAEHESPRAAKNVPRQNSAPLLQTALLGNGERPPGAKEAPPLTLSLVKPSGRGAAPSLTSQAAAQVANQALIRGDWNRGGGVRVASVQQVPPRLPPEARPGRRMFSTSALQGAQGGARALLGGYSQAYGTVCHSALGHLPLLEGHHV

[29] = test system: LCK (mouse); settings: accession and sequence are those of the human protein
[30] = molecular target: PLK1 (human) (UniProt P53350)
[31] = molecular target: BTK (human) (UniProt Q06187)
Sequence of BTK (human) (Q06187 whole entry, looked up): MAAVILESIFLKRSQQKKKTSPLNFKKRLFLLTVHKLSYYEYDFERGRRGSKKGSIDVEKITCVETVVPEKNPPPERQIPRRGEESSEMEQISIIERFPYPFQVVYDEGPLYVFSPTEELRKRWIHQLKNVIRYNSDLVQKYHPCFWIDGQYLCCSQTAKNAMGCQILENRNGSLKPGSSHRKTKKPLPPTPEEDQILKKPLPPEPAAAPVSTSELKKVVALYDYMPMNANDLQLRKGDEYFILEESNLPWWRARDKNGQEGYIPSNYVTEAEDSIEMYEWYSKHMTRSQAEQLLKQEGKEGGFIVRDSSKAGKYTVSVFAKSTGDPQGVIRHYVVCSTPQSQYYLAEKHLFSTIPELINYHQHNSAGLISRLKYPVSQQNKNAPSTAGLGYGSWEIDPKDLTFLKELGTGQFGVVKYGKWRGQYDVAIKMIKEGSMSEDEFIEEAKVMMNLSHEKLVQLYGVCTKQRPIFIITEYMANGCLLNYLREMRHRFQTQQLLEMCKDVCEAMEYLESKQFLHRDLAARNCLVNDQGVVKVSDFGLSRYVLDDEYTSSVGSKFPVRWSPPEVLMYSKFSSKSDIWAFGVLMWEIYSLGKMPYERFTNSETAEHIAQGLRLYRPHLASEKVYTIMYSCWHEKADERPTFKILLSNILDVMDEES

[32] = molecular target: IKBKE (human) (UniProt Q14164)
[33] = molecular target: EEF2K (human) (UniProt O00418)
Sequence of EEF2K (human) (O00418 whole entry, looked up): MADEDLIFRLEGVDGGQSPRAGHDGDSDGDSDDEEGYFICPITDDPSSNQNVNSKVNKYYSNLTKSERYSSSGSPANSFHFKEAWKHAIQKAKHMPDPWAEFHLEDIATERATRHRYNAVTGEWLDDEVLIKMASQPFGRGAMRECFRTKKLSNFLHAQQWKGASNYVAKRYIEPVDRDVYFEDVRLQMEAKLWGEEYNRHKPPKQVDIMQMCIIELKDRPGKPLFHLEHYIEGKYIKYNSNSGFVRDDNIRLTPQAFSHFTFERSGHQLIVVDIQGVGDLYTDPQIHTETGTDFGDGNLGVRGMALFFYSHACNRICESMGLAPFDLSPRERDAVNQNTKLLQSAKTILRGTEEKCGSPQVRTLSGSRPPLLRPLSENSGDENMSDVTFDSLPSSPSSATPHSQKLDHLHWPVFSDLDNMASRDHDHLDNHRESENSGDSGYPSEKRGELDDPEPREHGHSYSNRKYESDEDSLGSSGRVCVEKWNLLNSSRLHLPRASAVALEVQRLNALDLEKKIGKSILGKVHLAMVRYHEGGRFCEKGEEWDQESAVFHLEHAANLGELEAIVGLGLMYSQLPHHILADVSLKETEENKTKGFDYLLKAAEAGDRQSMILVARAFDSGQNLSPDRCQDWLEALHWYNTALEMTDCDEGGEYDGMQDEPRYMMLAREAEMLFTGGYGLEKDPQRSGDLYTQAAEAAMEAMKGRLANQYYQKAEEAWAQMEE

[34] = molecular target: MAPK1 (human) (UniProt P28482)

COC(=O)Nc1ccc(-c2nc(N3CCOCC3)c3cnn(C4CCN(C(=O)OC)CC4)c3n2)cc1
per cent of control ([1]; compound 1.0 µM): 103%
per cent of control ([1]; compound 10.0 µM): 100%
per cent of control ([2]; compound 1.0 µM): 97%
per cent of control ([2]; compound 10.0 µM): 100%
per cent of control ([3]; compound 1.0 µM): 94%
per cent of control ([3]; compound 10.0 µM): 93%
per cent of control ([4]; compound 1.0 µM): 82%
per cent of control ([4]; compound 10.0 µM): 81%
per cent of control ([5]; compound 1.0 µM): 88%
per cent of control ([5]; compound 10.0 µM): 82%
per cent of control ([6]; compound 1.0 µM): 87%
per cent of control ([6]; compound 10.0 µM): 80%
per cent of control ([7]; compound 1.0 µM): 96%
per cent of control ([7]; compound 10.0 µM): 94%
per cent of control ([8]; compound 1.0 µM): 55%
per cent of control ([8]; compound 10.0 µM): 17%
per cent of control ([9]; compound 1.0 µM): 93%
per cent of control ([9]; compound 10.0 µM): 91%
per cent of control ([10]; compound 1.0 µM): 99%
per cent of control ([10]; compound 10.0 µM): 92%
per cent of control ([11]; compound 1.0 µM): 96%
per cent of control ([11]; compound 10.0 µM): 92%
per cent of control ([12]; compound 1.0 µM): 81%
per cent of control ([12]; compound 10.0 µM): 75%
per cent of control ([13]; compound 1.0 µM): 86%
per cent of control ([13]; compound 10.0 µM): 93%
per cent of control ([14]; compound 1.0 µM): 109%
per cent of control ([14]; compound 10.0 µM): 102%
per cent of control ([15]; compound 1.0 µM): 98%
per cent of control ([15]; compound 10.0 µM): 91%
per cent of control ([16]; compound 1.0 µM): 98%
per cent of control ([16]; compound 10.0 µM): 74%
per cent of control ([17]; compound 1.0 µM): 82%
per cent of control ([17]; compound 10.0 µM): 79%
per cent of control ([18]; compound 1.0 µM): 124%
per cent of control ([18]; compound 10.0 µM): 127%
per cent of control ([19]; compound 1.0 µM): 108%
per cent of control ([19]; compound 10.0 µM): 101%
per cent of control ([20]; compound 1.0 µM): 100%
per cent of control ([20]; compound 10.0 µM): 88%
per cent of control ([21]; compound 1.0 µM): 14%
per cent of control ([21]; compound 10.0 µM): 10%
per cent of control ([22]; compound 1.0 µM): 106%
per cent of control ([22]; compound 10.0 µM): 104%
per cent of control ([23]; compound 1.0 µM): 97%
per cent of control ([23]; compound 10.0 µM): 88%
per cent of control ([24]; compound 1.0 µM): 109%
per cent of control ([24]; compound 10.0 µM): 113%
per cent of control ([25]; compound 1.0 µM): 102%
per cent of control ([25]; compound 10.0 µM): 95%
per cent of control ([26]; compound 1.0 µM): 111%
per cent of control ([26]; compound 10.0 µM): 104%
per cent of control ([27]; compound 1.0 µM): 81%
per cent of control ([27]; compound 10.0 µM): 80%
per cent of control ([28]; compound 1.0 µM): 94%
per cent of control ([28]; compound 10.0 µM): 98%
per cent of control ([29]; compound 1.0 µM): 100%
per cent of control ([29]; compound 10.0 µM): 91%
per cent of control ([30]; compound 1.0 µM): 105%
per cent of control ([30]; compound 10.0 µM): 88%
per cent of control ([31]; compound 1.0 µM): 116%
per cent of control ([31]; compound 10.0 µM): 99%
per cent of control ([32]; compound 1.0 µM): 90%
per cent of control ([32]; compound 10.0 µM): 90%
per cent of control ([33]; compound 1.0 µM): 97%
per cent of control ([33]; compound 10.0 µM): 106%
per cent of control ([34]; compound 1.0 µM): 109%
per cent of control ([34]; compound 10.0 µM): 108%
